Series [1] can be described thus: Binding affinity to C-terminal 6His-tagged Chlamydia trachomatis DUB1 (130 to 401 residues) expressed in Escherichia coli Rosetta 2 (DE3) cells using Ub-Rh110Gly as fluorogenic substrate assessed as inhibition constant preincubated for 60 mins followed by substrate addition measured after 360 mins by plate reader analysis.
Series [2] has as its target T1, Ubiquitin carboxyl-terminal hydrolase isozyme L1 (Homo sapiens, UniProt P09936).
T1 sequence (P09936 whole entry): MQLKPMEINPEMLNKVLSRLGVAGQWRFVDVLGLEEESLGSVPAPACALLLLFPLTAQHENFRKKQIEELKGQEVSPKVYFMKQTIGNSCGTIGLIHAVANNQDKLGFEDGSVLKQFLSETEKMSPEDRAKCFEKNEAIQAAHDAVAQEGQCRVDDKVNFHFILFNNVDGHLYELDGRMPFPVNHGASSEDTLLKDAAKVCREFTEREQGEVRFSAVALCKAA
Description: Inhibition of 6His-tagged human UCHL1 using Ub-Rh110Gly as fluorogenic substrate preincubated for 1 hr followed by substrate addition by plate reader analysis.

The target in series [3] is T2, Ubiquitin carboxyl-terminal hydrolase 25 (Homo sapiens) (UniProt Q9UHP3).
T2 sequence (whole entry): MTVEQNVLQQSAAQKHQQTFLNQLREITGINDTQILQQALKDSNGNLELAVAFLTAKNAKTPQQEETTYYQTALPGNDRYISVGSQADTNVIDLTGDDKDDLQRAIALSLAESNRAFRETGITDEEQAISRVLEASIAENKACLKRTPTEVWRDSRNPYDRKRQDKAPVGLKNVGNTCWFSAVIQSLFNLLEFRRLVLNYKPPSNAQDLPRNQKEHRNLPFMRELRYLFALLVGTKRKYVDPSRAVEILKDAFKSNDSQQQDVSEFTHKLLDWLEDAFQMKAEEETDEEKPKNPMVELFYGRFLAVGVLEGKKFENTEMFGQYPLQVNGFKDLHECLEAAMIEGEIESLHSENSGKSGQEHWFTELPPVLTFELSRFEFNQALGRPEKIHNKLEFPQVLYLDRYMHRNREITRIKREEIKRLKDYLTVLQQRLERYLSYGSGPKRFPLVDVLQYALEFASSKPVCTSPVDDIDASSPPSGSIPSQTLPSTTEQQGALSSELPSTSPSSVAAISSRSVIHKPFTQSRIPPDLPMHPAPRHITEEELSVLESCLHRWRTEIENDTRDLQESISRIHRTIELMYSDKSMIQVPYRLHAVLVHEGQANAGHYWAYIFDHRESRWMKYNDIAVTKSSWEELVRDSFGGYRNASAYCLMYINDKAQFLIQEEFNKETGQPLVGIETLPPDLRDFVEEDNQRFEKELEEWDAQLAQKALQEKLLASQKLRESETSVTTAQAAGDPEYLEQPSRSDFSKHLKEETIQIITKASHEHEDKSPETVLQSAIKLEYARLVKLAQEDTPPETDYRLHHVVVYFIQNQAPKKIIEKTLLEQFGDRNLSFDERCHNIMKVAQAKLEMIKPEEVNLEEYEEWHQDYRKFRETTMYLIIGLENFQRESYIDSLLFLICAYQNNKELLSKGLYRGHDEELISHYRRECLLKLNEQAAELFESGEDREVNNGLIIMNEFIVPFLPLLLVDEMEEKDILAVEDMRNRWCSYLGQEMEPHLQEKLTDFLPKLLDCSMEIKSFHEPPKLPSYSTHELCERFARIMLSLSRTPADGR
Description: Inhibition of human USP25 (765 to 1055 residues) expressed in Escherichia coli Rosetta 2 (DE3) cells using Ub-Rh110Gly as fluorogenic substrate at 40 uM preincubated for 1 hr followed by substrate addition by plate reader analysis.

The target in series [4] is T3, Ubiquitin thioesterase OTU1 (Homo sapiens) (UniProt Q5VVQ6).
T3 sequence (whole entry): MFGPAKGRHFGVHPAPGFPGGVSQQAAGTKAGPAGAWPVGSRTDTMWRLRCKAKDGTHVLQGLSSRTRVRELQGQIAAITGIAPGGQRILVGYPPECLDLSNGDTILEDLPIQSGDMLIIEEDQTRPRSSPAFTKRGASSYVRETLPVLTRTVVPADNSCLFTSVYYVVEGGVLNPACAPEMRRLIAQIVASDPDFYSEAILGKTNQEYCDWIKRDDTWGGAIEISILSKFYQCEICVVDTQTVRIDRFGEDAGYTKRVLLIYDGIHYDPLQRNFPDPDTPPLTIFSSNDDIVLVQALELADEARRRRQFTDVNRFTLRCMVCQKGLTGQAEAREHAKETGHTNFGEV
As to the kind of experiment: Inhibition of GST-tagged human OTUD2 using Ub-AMC as substrate at 40 uM preincubated for 1 hr followed by substrate addition by plate reader analysis.

In series [5] the test system is Chlamydia trachomatis. Description: Anti-chlamydial activity against Chlamydia trachomatis serovar L2 infected in human HEp-2 cells assessed as fold change in inhibition of chlamydial inclusion incubated for 24 hrs by Alexa488/DAPI staining based immunofluorescence assay relative to doxycycline. The class given is functional.
The subject of series [6] is HEp-2. Description: Cytotoxicity against human HEp-2 cells at 4 to 128 ug/ml incubated for 20 hrs by […] assay. It is filed as toxicity, cell-based. The settings on record: hep-2, 20 h, dose 4-128 µg/ml.
In series [7] the test system is Chlamydia trachomatis. Description: Antimicrobial activity against Chlamydia trachomatis serovar L2 infected in human HeLa cells assessed as inclusion forming unit at 1.56 to 6.25 ug/ml measured after 24 hrs of post-infection by immunofluorescence based microscopic analysis. It is filed as functional. The settings on record: dose 1.56-6.25 µg/ml.
For series [8], the system named is Chlamydia trachomatis. Description: Antimicrobial activity against Chlamydia trachomatis serovar L2 infected in human HeLa cells assessed as reduction in inclusion forming unit at 12.5 ug/ml measured after 8 hrs of post-infection by immunofluorescence based microscopic analysis. The class given is functional, organism-based. The note with it: dose 12.5 µg/ml.
Series [9] deals with Chlamydia trachomatis. Description: Antimicrobial activity against Chlamydia trachomatis serovar L2 infected in human HeLa cells assessed as reduction in inclusion area at 6.25 ug/ml measured after 24 hrs of post-infection by microscopic analysis. It is filed as functional. The note with it: dose 6.25 µg/ml.
Series [10] relates to Chlamydia trachomatis. As to the kind of experiment: Antimicrobial activity against Chlamydia trachomatis serovar L2 infected in human HeLa cells assessed as reduction in inclusion circumference at 3.13 ug/ml measured after 24 hrs of post-infection by microscopic analysis (reference value: 31.72 micrometer). The class given is functional. The note with it: dose 3.13 µg/ml.

Series [11] relates to Chlamydia trachomatis. As to the kind of experiment: Antimicrobial activity against Chlamydia trachomatis serovar L2 infected in human HeLa cells assessed as reduction in microbial progeny at 1.56 ug/ml measured after 24 hrs of post-infection by immunofluorescence analysis. It is filed as functional. The settings on record: dose 1.56 µg/ml.

Activity calls are given as the source filed them. The calls are words filed in the database; no cut-off is given here.

Turning to `N#Cc1ncc(C(=O)NCc2ccc(C(=O)NC34CC5CC(CC(C5)C3)C4)cc2)cn1`, the Ki in series [1] is 120 µM. In [2], this compound returned an IC50 of 4.2 µM. Further, the inhibition entry in [3] and in [4] was “inactive” in each case. In addition, the “fold change (FC)” value in series [5] is reported as 200. The Activity result in series [6] is “Toxic”; in series [7] it was 1.075 10^7IFU/ml; in series [9] it was 47.16 um2; in [10], 27.26 um. Besides, the result in series [8] was Active. For the same compound, the result in series [11] was inactive.

(Values after ChEMBL document CHEMBL5576083, “Structure-Based Design and Synthesis of Covalent Inhibitors for Deubiquitinase and Acetyltransferase ChlaDUB1 of Chlamydia trachomatis” (J Med Chem, 2024).)
